Holding throughout (format): cell-based, human
Test [1] concerns SK-MEL-28 cells. Kind of test: Cell proliferation (cell counting) of melanoma cells treated with peptides. The following applies: for Proliferation, result in words (summary of Table 2) / Cell Count 7 days: SK-MEL-28; for Proliferation, result in words (summary of Table 2): 10 μM; for Cell Count 7 days: peptide 10 μM in media, start count 10; for Growth of melanoma cells in vitro, result in words (library screening): screening of peptide libraries using SK-MEL-28. How it is done: (§1) Human melanoma cell lines SK-MEL-28 and WM-266-4 were obtained from the American Type Culture Collection (ATCC; Manassas, Va.; SK-MEL-28 deposited by T. Takehashi and subject to release terms set by The Memorial Sloan-Kettering Cancer Center; WM-266-4 deposited by M. Herlyn). Cells were cultured according to recommendations of ATCC (DMEM, 10% FCS, penicillin+streptomycin) and used in experiments after two passages in the laboratory. Cells were grown in 24 well plates, each treatment in triplicates. Cells were plated 16 hours prior treatments started. Peptides were added to the media, and media was changed every day during 7 day experiment. CPP concentration was 10 μM.
(§2) For cell counting, cells were trypsinized (0.25% Trypsin, 2 mM EDTA) in Ca+2, Mg+2 free PBS. Cells were precipitated and resuspended in 100 μl of PBS, and 5 μl were removed for counting
(§3) Effects of peptide drug candidates BAF57 P12 and TRAP100 P05 on cell proliferation and apoptosis were analyzed using human melanoma cell lines SK-MEL-28 and WM 266-4. Therapeutic peptides were added at a concentration of 10 μM directly to culture media. Internalization and translocation of the therapeutic peptide(s) into the cell nucleus was studied using fluorescein labeled peptides. […] As controls we used scrambled peptides. […] Simultaneous incubation of melanoma cells with both peptides caused complete inhibition of proliferation and induction of apoptosis in almost all treated cells.

The subject of test [2] is WM 266-4 cells. The test is described as above. The conditions noted are these: for Proliferation, result in words (summary of Table 2): 10 μM; for Cell Count 7 days: peptide 10 μM in media, start count 10, 7 days. How it is done:
as §1, §2, §3

In test [3] the test system is SK-MEL-28 cells. Kind of test: Apoptosis (Annexin V-Cy3 kit) of melanoma cells treated with peptides. The conditions noted are these: for Apoptosis, result in words (summary of Table 2) / Apoptosis 7 days/%: SK-MEL-28; for Apoptosis, result in words (summary of Table 2): 10 μM; for Apoptosis 7 days/%: peptide 10 μM; for Apoptosis of melanoma cells in vitro, result in words (library screening): screening of peptide libraries using SK-MEL-28. The protocol:
as §1
(§4) Apoptosis was analyzed using Biovision Annexin V-Cy3 Apoptosis Kit according to manufacturer's protocols.
as §3

The subject of test [4] is WM 266-4 cells. The description is as above. The conditions noted are these: for Apoptosis, result in words (summary of Table 2): 10 μM; for Apoptosis 7 days/%: peptide 10 μM. The protocol: as §1, §4, §3

For “PKKRKVRRRRRRRNDRLSDGDSKYSQTSHKLVQLL (listed as Homo sapiens) [BAF57 P12, NLS-CPP-interfering peptide targeting chromatin modifying complex containing cancer specific isoform of BAF57]”, in the test with SK-MEL-28 cells [1], the “Proliferation, result in words (summary of Table 2)” value (“Proliferation, result in words” for short) was “suppress significantly proliferation”; the “Cell Count 7 days” value stood at 16; the “Growth of melanoma cells in vitro, result in words (library screening)” value is recorded as “inhibit growth of melanoma cells”. Further, in the test with WM 266-4 cells [2], the “Proliferation, result in words” value is recorded as “suppress significantly proliferation” and the “Cell Count 7 days” value is recorded as 17. In the test on SK-MEL-28 cells [3], the “Apoptosis, result in words (summary of Table 2)” value (shortened to “Apoptosis, result in words”) is “induce apoptosis”; the “Apoptosis 7 days/%” value was 65%; the “Apoptosis of melanoma cells in vitro, result in words (library screening)” value is “stimulate apoptosis”. Further, in the test with WM 266-4 cells [4], the “Apoptosis, result in words” value is on record as “induce apoptosis” and the “Apoptosis 7 days/%” value is given as 59%.

As to “PKKRKVRRRRRRRPQMQQNVFQYPGAGMVPQGEANF (listed as Homo sapiens) [TRAP100 P05, NLS-CPP-interfering peptide targeting mediator complex containing cancer specific isoform of MED24/TRAP100]”, in the test on SK-MEL-28 cells [1], the “Proliferation, result in words” value is recorded as “suppress significantly proliferation”; the “Cell Count 7 days” value amounted to 12; the “Growth of melanoma cells in vitro, result in words (library screening)” value is “inhibit growth of melanoma cells”. In addition, in the test with WM 266-4 cells [2], the “Proliferation, result in words” value is on record as “suppress significantly proliferation” and the “Cell Count 7 days” value came out at 15. In addition, in the test on SK-MEL-28 cells [3], the “Apoptosis, result in words” value is “induce apoptosis”; the “Apoptosis 7 days/%” value was determined as 78%; the “Apoptosis of melanoma cells in vitro, result in words (library screening)” value is recorded as “stimulate apoptosis”. For the same sequence, in the test on WM 266-4 cells [4], the “Apoptosis, result in words” value is “induce apoptosis” and the “Apoptosis 7 days/%” value was 78%.

These data come from US7973135B2, “Compositions and methods for targeting cancer-specific transcription complexes” (Oncotx, Inc., priority 2006, dated 2011).
